Structures can show the parent of a compound that is named as a salt.
Molecular target: T1, HCV NS3/4A protease complex, BMS strain (genotype 1a) (UniProt P27958, C1454S/C1711G, species not given/STRAIN_BMS)
T1 construct: b1001: DNA encoding the recombinant HCV NS3/4A protease complex (amino acids 1027 to 1711) ... a three-lysine solubilizing tail was added at the 3′-end of the NS4A coding region; fused on or other part: Three-lysine solubilising tail at the C-terminus of NS4A; A His tag is implied by the pET21b vector and Ni-NTA purification
Assay: Recombinant HCV NS3/4A protease complex FRET peptide assay, BMS strain
Assay type: biochemical
Source text: Recombinant HCV NS3/4A Protease Complex FRET Peptide Assay
The purpose of this in vitro assay was to measure the inhibition of HCV NS3 protease complexes, derived from the BMS strain, H77C strain or J416S strain, as described below, by compounds of the present invention. This assay provides an indication of how effective compounds of the present invention would be in inhibiting HCV proteolytic activity.
Serum from an HCV-infected patient was obtained from Dr. T. Wright, San Francisco Hospital. An engineered full-length cDNA (compliment deoxyribonucleic acid) template of the HCV genome (BMS strain) was constructed from DNA fragments obtained by reverse transcription-PCR (RT-PCR) of serum RNA (ribonucleic acid) and using primers selected on the basis of homology between other genotype 1a strains. From the determination of the entire genome sequence, a genotype 1a was assigned to the HCV isolate according to the classification of Simmonds et al. (See P Simmonds, K A Rose, S Graham, S W Chan, F McOmish, B C Dow, E A Follett, P L Yap and H Marsden, J. Clin. Microbiol., 31(6), 1493–1503 (1993)). […] The infectious clones, H77C (1a genotype) and J4L6S (1b genotype) were obtained from R. Purcell (NIH) and the sequences are published in Genbank (AAB67036, see Yanagi, M., Purcell, R. H., Emerson, S. U. and Bukh, J. Proc. Natl. Acad. Sci. U.S.A. 94(16), 8738–8743 (1997); AF054247, see Yanagi, M., St Claire, M., Shapiro, M., Emerson, S. U., Purcell, R. H. and Bukh, J, Virology 244 (1), 161–172. (1998)).
The H77C and J4L6S strains were used for production of recombinant NS3/4A protease complexes. DNA encoding the recombinant HCV NS3/4A protease complex (amino acids 1027 to 1711) for these strains were manipulated as described by P. Gallinari et al. (see Gallinari P, Paolini C, Brennan D, Nardi C, Steinkuhler C, De Francesco R. Biochemistry. 38(17):5620–32, (1999)). Briefly, a three-lysine solubilizing tail was added at the 3′-end of the NS4A coding region. The cysteine in the P1 position of the NS4A-NS4B cleavage site (amino acid 1711) was changed to a glycine to avoid the proteolytic cleavage of the lysine tag. Furthermore, a cysteine to serine mutation was introduced by PCR at amino acid position 1454 to prevent the autolytic cleavage in the NS3 helicase domain. The variant DNA fragment was cloned in the pET21b bacterial expression vector (Novagen) and the NS3/4A complex was expressed in Escherichia coli strain BL21 (DE3) (Invitrogen) following the protocol described by P. Gallinari et al. (see Gallinari P, Brennan D, Nardi C, Brunetti M, Tomei L, Steinkuhler C, De Francesco R., J. Virol. 72(8):6758–69 (1998)) with modifications. Briefly, NS3/4A expression was induced with 0.5 mM Isopropyl β-D-1-thiogalactopyranoside (IPTG) for 22 hr at 20° C. A typical fermentation (10 L) yielded approximately 80 g of wet cell paste. The cells were resuspended in lysis buffer (10 mL/g) consisting of 25 mM N-(2-Hydroxyethyl)piperazine-N′-(2-Ethane Sulfonic acid) (HEPES), pH7.5, 20% glycerol, 500 mM Sodium Chloride (NaCl), 0.5% Triton-X100, 1 microgram/milliliter (“μg/mL”) lysozyme, 5 mM Magnesium Chloride (MgCl2), 1 ug/ml DnaseI, 5 mM β-Mercaptoethanol (βME), Protease inhibitor—Ethylenediamine Tetraacetic acid (EDTA) free (Roche), homogenized and incubated for 20 mins at 4° C. The homogenate was sonicated and clarified by ultra-centrifugation at 235000 g for 1 hr at 4° C. Imidazole was added to the supernatant to a final concentration of 15 mM and the pH adjusted to 8.0. The crude protein extract was loaded on a Nickel-Nitrilotriacetic acid (Ni-NTA) column pre-equilibrated with buffer B (25 mM HEPES, pH8.0, 20% glycerol, 500 mM NaCl, 0.5% Triton-X100, 15 mM imidazole, 5 mM βME). The sample was loaded at a flow rate of 1 mL/min. The column was washed with 15 column volumes of buffer C (same as buffer B except with 0.2% Triton-X100). The protein was eluted with 5 column volumes of buffer D (same as buffer C except with 200 mM Imidazole). […]

[1] = NS3/4A BMS strain, activity range symbols
[2] = NS3/4A BMS Strain, activity range classes

Row | SMILES | IC50 [1] [nM] | IC50 [2] [nM]
1 | CC(C)(C)COC(=O)N[C@H]1CCCCC/C=C\[C@@H]2C[C@@]2(C(=O)NS(=O)(=O)C2CC2)NC(=O)[C@@H]2C[C@@H](Oc3nccc4ccccc34)CN2C1=O [Compound 13, [4-Cyclopropanesulfonylaminocarbonyl-18-(isoquinolin-1-yloxy)-2,15-dioxo-3,16-diaza-tricyclo[14.3.0.0^4,6]nonadec-7-en-14-yl]-carbamic acid 2,2-dimethyl-propyl ester] | < 50 | –
2 | COc1ccc2c(OC3CC4C(=O)NC5(C(=O)NS(=O)(=O)C6CC6)CC5C=CCCCSCC(NC(=O)OCC(C)(C)C)C(=O)N4C3)nccc2c1 (centres unmarked) [Compound 75] | < 50 | –
3 | CCC1(S(=O)(=O)NC(=O)C23CC2C=CCCCS(=O)(=O)CC(NC(=O)OC(C)(C)C)C(=O)N2CC(Oc4nccc5cc(OC)ccc45)CC2C(=O)N3)CC1 (centres unmarked) [Compound 48] | < 50 | –
4 | COc1ccc2c(OC3CC4C(=O)NC5(C(=O)NS(=O)(=O)C6CC6)CC5C=CCOCCCC(NC(=O)NC5CCCC5)C(=O)N4C3)nccc2c1 (centres unmarked) [Compound 33] | < 50 | –
5 | O=C(N[C@H]1CCCCC/C=C\[C@@H]2C[C@@]2(C(=O)NS(=O)(=O)C2CC2)NC(=O)[C@@H]2C[C@@H](Oc3nccc4ccccc34)CN2C1=O)OC1CCOCC1 [Compound 14, [4-Cyclopropanesulfonylaminocarbonyl-18-(isoquinolin-1-yloxy)-2,15-dioxo-3,16-diaza-tricyclo[14.3.0.0^4,6]nonadec-7-en-14-yl]-carbamic acid tetrahydro-pyran-4-yl ester] | < 50 | –
6 | COc1ccc2c(OC3CC4C(=O)NC5(C(=O)NS(=O)(=O)C6(C)CC6)CC5C=CCCCOC(C)C(NC(=O)OC(C)(C)C)C(=O)N4C3)nccc2c1 (centres unmarked) [Compound 66] | < 50 | –
7 | CC(C)(C)OC(=O)N[C@H]1CCCCC/C=C\[C@@H]2C[C@@]2(C(=O)NS(=O)(=O)C2CC2)NC(=O)[C@@H]2C[C@@H](Oc3nc(-c4ccccc4)cc4ccccc34)CN2C1=O [Compound 58, [(Z)-(1S,4R,14S,18R)-4-cyclopropanesulfonylaminocarbonyl-2,15-dioxo-18-(3-phenyl-isoquinolin-1-yloxy)-3,16-diaza-tricyclo[14.3.0.0^4,6]nonadec-7-en-14-yl]-carbamic acid tert-butyl ester] | < 50 | –
8 | COc1ccc2c(OC3CC4C(=O)NC5(C(=O)O)CC5C=CCCCCCC(NC(=O)OC(C)(C)C)C(=O)N4C3)nccc2c1 (centres unmarked) [Compound 17A] | – | < 50
9 | CC(C)(C)OC(=O)N[C@H]1CCCCCCC[C@@H]2C[C@@]2(C(=O)NS(=O)(=O)C2CC2)NC(=O)[C@@H]2C[C@@H](Oc3nccc4ccccc34)CN2C1=O [Compound 10, [4-Cyclopropanesulfonylaminocarbonyl-18-(isoquinolin-1-yloxy)-2,15-dioxo-3,16-diaza-tricyclo[14.3.0.0^4,6]nonadec-14-yl]-carbamic acid tert-butyl ester] | < 50 | –
10 | COc1ccc2c(OC3CC4C(=O)NC5(C(=O)NS(=O)(=O)C6CC6)CC5C=CCCCOC(C)C(NC(=O)NC5CCCC5)C(=O)N4C3)nccc2c1 (centres unmarked) [Compound 65] | < 50 | –
11 | N[C@H]1CCCCC/C=C\[C@@H]2C[C@@]2(C(=O)NS(=O)(=O)C2CC2)NC(=O)[C@@H]2C[C@@H](Oc3nccc4ccccc34)CN2C1=O [Compound 11, Cyclopropanesulfonic acid [14-amino-18-(isoquinolin-1-yloxy)-2,15-dioxo-3,16-diaza-tricyclo[14.3.0.0^4,6]nonadec-7-ene-4-carbonyl]-amide bis hydrochloride] | < 50 | –
12 | CC(C)S(=O)(=O)NC(=O)[C@@]12C[C@H]1/C=C\CCCCC[C@H](NC(=O)OC(C)(C)C)C(=O)N1C[C@H](Oc3nccc4ccccc34)C[C@H]1C(=O)N2 [Compound 3, [18-(Isoquinolin-1-yloxy)-2,15-dioxo-4-(propane-2-sulfonylaminocarbonyl)-3,16-diaza-tricyclo-[14.3.0.0^4,6]nonadec-7-en-14-yl]-carbamic acid tert-butyl ester] | < 50 | –
13 | CCC1(S(=O)(=O)NC(=O)C23CC2C=CCOCCCC(NC(=O)OC(C)(C)C)C(=O)N2CC(Oc4nccc5cc(OC)ccc45)CC2C(=O)N3)CC1 (centres unmarked) [Compound 30] | < 50 | –
14 | COc1ccc2c(OC3CC4C(=O)NC5(C(=O)NS(=O)(=O)C6(C)CC6)CC5C=CCCCCCC(NC(=O)OC(C)(C)C)C(=O)N4C3)nccc2c1 (centres unmarked) [Compound 53] | < 50 | –
15 | CCCC1(S(=O)(=O)NC(=O)[C@@]23C[C@H]2/C=C\CCCCC[C@H](NC(=O)OC(C)(C)C)C(=O)N2C[C@H](Oc4nccc5ccccc45)C[C@H]2C(=O)N3)CC1 [Compound 6, [18-(Isoquinolin-1-yloxy)-2,15-dioxo-4-(1-propyl-cyclopropanesulfonylaminocarbonyl)-3,16-diaza-tricyclo[14.3.0.0^4,6]nonadec-7-en-14-yl]-carbamic acid tert-butyl ester] | < 50 | –
16 | CC1(OC(=O)NC2CCCCCC=CC3CC3(C(=O)NS(=O)(=O)C3CC3)NC(=O)C3CC(Oc4nccc5ccccc45)CN3C2=O)CCCC1 (centres unmarked) [Compound 50] | < 50 | –
17 | CC1(OC(=O)NC2CCCCCC=CC3CC3(C(=O)NS(=O)(=O)C3CC3)NC(=O)C3CC(Oc4nccc5ccccc45)CN3C2=O)CC1 (centres unmarked) [Compound 59] | < 50 | –
18 | COc1ccc2c(OC3CC4C(=O)NC5(C(=O)NS(=O)(=O)C6(C)CC6)CC5C=CCCCSCC(NC(=O)OC(C)C)C(=O)N4C3)nccc2c1 (centres unmarked) [Compound 41] | < 50 | –
19 | CC(C)(C)OC(=O)N[C@H]1CCCCC/C=C\[C@@H]2C[C@@]2(C(=O)NS(=O)(=O)C2CCC2)NC(=O)[C@@H]2C[C@@H](Oc3nccc4ccccc34)CN2C1=O [Compound 9, [4-Cyclobutanesulfonylaminocarbonyl-18-(isoquinolin-1-yloxy)-2,15-dioxo-3,16-diaza-tricyclo[14.3.0.0^4,6]nonadec-7-en-14-yl]-carbamic acid tert-butyl ester] | < 50 | –
20 | CC(C)(C)OC(=O)NC1CSCCCC=CC2CC2(C(=O)NS(=O)(=O)C2CC2)NC(=O)C2CC(Oc3nccc4c(Cl)cccc34)CN2C1=O (centres unmarked) [Compound 78] | < 50 | –
21 | COc1ccc2c(OC3CC4C(=O)NC5(C(=O)NS(=O)(=O)C6CC6)CC5C=CCCCOC(C)C(NC(=O)OCC(C)(C)C)C(=O)N4C3)nccc2c1 (centres unmarked) [Compound 63] | < 50 | –
22 | CC(C)OC(=O)N[C@H]1CCCCC/C=C\[C@@H]2C[C@@]2(C(=O)NS(=O)(=O)C2CC2)NC(=O)[C@@H]2C[C@@H](Oc3nccc4ccccc34)CN2C1=O [Compound 16, [4-Cyclopropanesulfonylaminocarbonyl-18-(isoquinolin-1-yloxy)-2,15-dioxo-3,16-diaza-tricyclo[14.3.0.0^4,6]nonadec-7-en-14-yl]-carbamic acid isopropyl ester] | < 50 | –
23 | CC(C)(C)OC(=O)N[C@H]1CCCCC/C=C\[C@@H]2C[C@@]2(C(=O)O)NC(=O)[C@@H]2C[C@@H](Oc3nccc4ccccc34)CN2C1=O [Compound 1, 14-tert-Butoxycarbonylamino-18-(isoquinolin-1-yloxy)-2,15-dioxo-3,16-diaza-tricyclo[14.3.0.0^4,6]nonadec-7-ene-4-carboxylic acid] | – | 50 to 500
